The source of these data is patent US20230149483A1, “SHORT-CHAIN FATTY ACID USE TO MITIGATE ANT[…] VIRULENCE GENE TRANSFER IN THE GUT” (Iowa State University Research Foundation, Inc., priority 2021, published 2023).

Test [1] relates to conjugation pair E. coli APEC-02 to E. coli HS-4 (plasmid pAPEC-02-211A-ColV, IncF). The format is cell-based.
The test system of test [2] is conjugation pairs S. Kentucky CVM29188 to E. coli HS-4 and E. coli APEC-02 to E. coli HS-4. The settings on record: for reduction of donor and recipient strains / transconjugant populations: physiological concentrations of SCFAs in the chicken gut, both conjugation pairs.
Procedure: Physiological concentrations of SCFAs in the chicken gut were added to broth conjugations with the conjugation pairs 1) S. Kentucky CVM29188 to E. coli HS-4, and 2) E. coli APEC-02 to E. coli HS-4 (FIG. 3).
Test [3] deals with conjugation pair E. coli APEC-02 to E. coli HS-4 in chicken ceca explants. It counts as cell-based. The method, then:
Ex vivo ceca explants serve as models for bacterial host interactions. Plasmid transfer and its inhibition by SCFAs were tested using chicken ceca explants to mimic in vivo conditions. Chicken ceca explants were harvested from 2 week-old chickens, cultured in vitro, and used in co-culture with donors/recipients in the presence or absence of SCFAs.

Test [4] relates to transfer of conjugative plasmid pCVM29188_146 (IncF) between E. coli MG1655 (pCVM29188_146) and E. coli HS-4. Put plainly: In vitro broth conjugation with propionate at fly media concentrations. The format is cell-based. The settings on record: as low as half the concentrations of standard Drosophila fly media.
[5] abbreviates: broth conjugation, varying molar concentrations between 0 and 1 molar (FIG. 4).
Where [6] appears, read: 25 mM, each SCFA used individually, ceca explants from 2 week-old chickens.

Molecules are shown by their SMILES. Read-outs that look alike come from different tables or passages of the source.

For `CCCC(=O)O` [butyric acid, butyric (butanoic) acid], the transconjugant populations entry in test [1] (setting [5]) and in test [2] was “significantly reduced” in each case. Further, the “reduction of donor and recipient strains” value in test [2] was “not”. The “efficacy in inhibition of plasmid transfer” value (“efficacy in inhibition” below) in test [3] (setting [6]) was “showed efficacy”.

`CC(=O)O` [acetic acid]: the transconjugant populations result in test [1] is “significantly reduced”. In test [2], the “reduction of donor and recipient strains” value is listed as “not”; the transconjugant populations entry was “significantly reduced”. Also, the “efficacy in inhibition” value in test [3] is “showed efficacy”.

For `O=CO` [formic acid], the transconjugant populations entry in test [1] is on record as “significantly reduced”. Besides, the “efficacy in inhibition” value in test [3] is on record as “showed efficacy”.

With `CC(C)C(=O)O` [isobutyric acid, isobutyric (2-methylbutanoic) acid], the transconjugant populations result in test [1] (setting [5]) was “significantly reduced”. Moreover, the “efficacy in inhibition” value in test [3] (setting [6]) was “showed efficacy”.

In the case of `CCCCC(=O)O` [valeric acid, valeric (pentanoic) acid], in test [1] (setting [5]), the transconjugant populations result was “significantly reduced”. Moreover, in test [3] (setting [6]), the “efficacy in inhibition” value is listed as “showed efficacy”.

Take `CCC(=O)O` [propionic acid]: in test [4], the “conjugation frequency (transconjugants divided by donors)” value is recorded as “significant decreases”. In addition, the transconjugant populations entry in test [1] (setting [5]) is on record as “significantly reduced”. For the same compound, the conjugation result in test [2] (physiological concentrations of propionate in the chicken gut) was “did not significantly reduce”. In addition, the “efficacy in inhibition” value in test [3] (setting [6]) was “showed efficacy”.

For `CC(C)CC(=O)O` [isovaleric acid, isovaleric (3-methylbutanoic)], the transconjugant populations entry in test [1] (setting [5]) is reported as “significantly reduced”. For the same compound, the “efficacy in inhibition” value in test [3] (setting [6]) is given as “showed efficacy”.
